Measured values: US20230117592A1 (SRI International, priority 2019, published 2023)
Where “and” joins values, the source holds several entries; their conditions need not be identical. Equal values may be shown once.

Experiments:
5-LOX = target: T1, 5-LOX (Homo sapiens, UniProt P09917); assay: 5-LOX fluorescent assay (in vitro lipoxygenase inhibition); format: biochemical; conditions: recombinant 5-LOX cell lysate, 20 μM AA, DHR123 fluorescence; several values in a cell = repeat determinations; read-out: IC50 (μM) values for in vitro lipoxygenase inhibition, 5-LOX
T1 sequence (P09917 1-674): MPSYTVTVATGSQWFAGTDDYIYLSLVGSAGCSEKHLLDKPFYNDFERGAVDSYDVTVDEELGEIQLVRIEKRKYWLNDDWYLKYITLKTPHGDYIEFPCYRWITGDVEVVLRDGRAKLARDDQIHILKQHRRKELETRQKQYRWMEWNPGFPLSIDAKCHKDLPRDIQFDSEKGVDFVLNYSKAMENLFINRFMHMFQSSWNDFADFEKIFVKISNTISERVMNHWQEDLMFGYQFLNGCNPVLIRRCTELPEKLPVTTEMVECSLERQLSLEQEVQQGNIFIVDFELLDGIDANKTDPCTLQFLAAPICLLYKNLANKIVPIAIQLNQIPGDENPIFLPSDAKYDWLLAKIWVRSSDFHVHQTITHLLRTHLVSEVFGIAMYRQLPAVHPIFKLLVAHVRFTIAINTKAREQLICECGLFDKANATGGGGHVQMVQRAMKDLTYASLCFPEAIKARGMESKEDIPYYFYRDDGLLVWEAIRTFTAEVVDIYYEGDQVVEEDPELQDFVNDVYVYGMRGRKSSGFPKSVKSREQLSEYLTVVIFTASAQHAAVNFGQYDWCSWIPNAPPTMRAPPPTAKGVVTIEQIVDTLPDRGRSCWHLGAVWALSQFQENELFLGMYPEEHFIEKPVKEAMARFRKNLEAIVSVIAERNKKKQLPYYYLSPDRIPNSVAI
Protocol: 5-LOX FI assay Fluorescent Assay
The enzyme assay (100 μL) contained 50 mM Tris, pH 7.5, 0.1 mM EDTA, 0.3 mM CaCl2, 20 μM AA, 100 μM ATP, 1 μM DHR123, and recombinant 5-LOX cell lysate (0.5 μL/100 μL). Inhibitors (dissolved in DMSO) were plated at 1 μL into 96-well assay microplates followed by a 40 μL addition of a solution containing 5-LOX enzyme. Enzyme was pre-incubated with compounds for 15 mins. The assay was initiated by the addition of a 40 μL substrate solution containing AA and ATP, and 20 μL addition of a solution containing DHR123. […] Percent inhibition was calculated for each compound dose for IC50 curve fitting using 4 Parameter Logistic Model or Sigmoidal Dose-Response Model.

12-LOX = target: T2, 12-LOX (Homo sapiens, UniProt P18054); assay: 12-LOX fluorescent assay (in vitro lipoxygenase inhibition); format: biochemical; conditions: 100 nM recombinant 12-LOX, 20 μM AA, DHR123 fluorescence; several values in a cell = repeat determinations; read-out: IC50 (μM) values for in vitro lipoxygenase inhibition, 12-LOX
T2 sequence (P18054 1-663): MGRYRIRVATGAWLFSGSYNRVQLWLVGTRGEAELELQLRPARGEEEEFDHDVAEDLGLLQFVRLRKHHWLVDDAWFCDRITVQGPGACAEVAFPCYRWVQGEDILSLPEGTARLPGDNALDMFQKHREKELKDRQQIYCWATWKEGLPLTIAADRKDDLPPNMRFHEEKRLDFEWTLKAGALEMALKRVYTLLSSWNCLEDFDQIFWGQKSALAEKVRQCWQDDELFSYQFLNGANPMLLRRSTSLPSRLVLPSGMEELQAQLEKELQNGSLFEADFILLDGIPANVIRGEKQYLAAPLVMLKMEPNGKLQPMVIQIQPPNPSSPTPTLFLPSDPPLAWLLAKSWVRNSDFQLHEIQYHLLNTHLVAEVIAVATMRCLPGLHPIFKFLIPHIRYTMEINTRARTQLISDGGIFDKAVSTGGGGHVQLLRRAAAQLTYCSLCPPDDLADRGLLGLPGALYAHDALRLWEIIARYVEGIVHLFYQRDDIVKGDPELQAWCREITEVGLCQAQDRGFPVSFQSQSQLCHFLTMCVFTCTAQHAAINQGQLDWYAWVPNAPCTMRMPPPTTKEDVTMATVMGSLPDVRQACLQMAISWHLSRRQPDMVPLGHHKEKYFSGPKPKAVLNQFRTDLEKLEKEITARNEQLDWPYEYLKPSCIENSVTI
Protocol: 12-LOX/15-LOX Fluorescent Assay
The enzyme assay (100 ul) contained 50 mM Tris, pH 7.5, 0.05% Tween-20, 20 μM AA/LA, 1 μM DHR123, and 100 nM recombinant 12-LOX enzyme/50 nM recombinant 15-LOX enzyme. Inhibitors (dissolved in DMSO) were plated at 1 μL into 96-well assay microplates followed by a 40 μL addition of a solution containing 12-LOX/15-LOX enzyme. Enzyme was pre-incubated with compounds for 15 mins. The assay was initiated by the addition of a 40 μL substrate solution containing AA/LA, and 20μL addition of a solution containing DHR123. […] Percent inhibition was calculated for each compound dose for IC50 curve fitting using 4 Parameter Logistic Model or Sigmoidal Dose-Response Model.

Row | IC50 (5-LOX) | IC50 (12-LOX) | Structure (SMILES)
1 | 0.08 µM and 0.26 µM | 0.02 µM | Fc1ccc(CNc2cc(-c3ccccc3)c(NCCn3cncn3)cc2F)cc1 [SS20308-0229-01, N2-(2-(1H-1,2,4-triazol-1-yl)ethyl)-4-fluoro-N5-(4-fluorobenzyl)-[1,1′-biphenyl]-2,5-diamine]
2 | 0.16 µM | 0.02 µM | Fc1ccc(CNc2ccc(NCCn3cncn3)c(-c3ccccc3)c2F)cc1 [SS20308-0228-01, N^2-(2-(1H-1,2,4-triazol-1-yl)ethyl)-6-fluoro-N^5-(4-fluorobenzyl)-[1,1′-biphenyl]-2,5-diamine]
3 | 0.08 µM | 0.06 µM | Fc1ccc(Nc2ccc(NCC3(Cn4cncn4)COC3)c(C(F)(F)F)c2)cc1 [SS20308-0296-01, N^1-((3-((1H-1,2,4-triazol-1-yl)methyl)oxetan-3-yl)methyl)-N^4-(4-fluorophenyl)-2-(trifluoromethyl)benzene-1,4-diamine]
4 | 0.23 µM | 0.36 µM | CN(C)CCCc1c(Nc2ccccc2)cccc1-c1cccc2c1NCC2 [SS20308-0172-01, 2-(3-(dimethylamino)propyl)-3-(indolin-7-yl)-N-phenylaniline]
5 | 0.4 µM | 0.17 µM | c1ccc(-c2ccc(NC3CCCCC3)cc2NCCn2cncn2)cc1 [SS20308-0200-01, N^2-(2-(1H-1,2,4-triazol-1-yl)ethyl)-N^4-cyclohexylbiphenyl-2,4-diamine]
6 | 1.26 µM | 0.32 µM | FC1(F)CCC(CNc2cccc(NCCn3cncn3)n2)CC1 [SS20308-0250-01, N^2-(2-(1H-1,2,4-triazol-1-yl)ethyl)-N^6-((4,4-difluorocyclohexyl)methyl)pyridine-2,6-diamine]
7 | 0.63 µM | 0.13 µM | FC1(F)CCC(CNc2ccc(NCCn3cncn3)cn2)CC1 [SS20308-0247-01, N^5-(2-(1H-1,2,4-triazol-1-yl)ethyl)-N^2-((4,4-difluorocyclohexyl)methyl)pyridine-2,5-diamine]
8 | 0.61 µM | 0.08 µM | c1ccc(CNc2cc(-c3ccccc3)c(NCCn3cncn3)cn2)cc1 [SS20308-0213-01, N^5-(2-(1H-1,2,4-triazol-1-yl)ethyl)-N^2-benzyl-4-phenylpyridine-2,5-diamine]
9 | 0.16 µM | 0.18 µM | CN(C)CC1(CNc2cc(Nc3ccc(F)cc3)ccc2-c2ccccc2)COC1 [SS20308-0184-01, N^2-((3-((dimethylamino)methyl)oxetan-3-yl)methyl)-N^4-(4-fluorophenyl)biphenyl-2,4-diamine]
10 | 7.23 µM | 3.37 µM | CN(C)CCOc1c(Nc2ccccc2)ccc2c(-c3ccccc3)cc(=O)[nH]c12 [SS20308-0072-01, 8-(2-(dimethylamino)ethoxy)-4-phenyl-7-(phenylamino)quinolin-2(1H)-one]
11 | 1.35 µM | 0.93 µM | Cn1nccc1-c1ccc(Nc2ccccc2)cc1NCCn1cncn1 [SS20308-0190-01, N^3-(2-(1H-1,2,4-triazol-1-yl)ethyl)-4-(1-methyl-1H-pyrazol-5-yl)-N^1-phenylbenzene-1,3-diamine]
12 | 0.4 µM | 0.18 µM | COc1ccccc1-c1ccc(Nc2ccccc2)cc1NCCn1cncn1 [SS20308-0144-01, N^2-(2-(1H-1,2,4-triazol-1-yl)ethyl)-2′-methoxy-N^4-phenylbiphenyl-2,4-diamine]
13 | 30 nM and 50 nM (2×) | 0.02 µM | c1ccc(CNc2ccc(NCCn3cncn3)c(-c3ccccc3)c2)cc1 [SS20308-0145-01, N^2-(2-(1H-1,2,4-triazol-1-yl)ethyl)-N^5-benzyl-[1,1′-biphenyl]-2,5-diamine]
14 | 0.17 µM and 0.28 µM | 0.08 µM and 0.15 µM | c1ccc(Nc2ccc(-c3ccn[nH]3)c(NCCn3cncn3)c2)cc1 [SS20308-0189-01, N^3-(2-(1H-1,2,4-triazol-1-yl)ethyl)-N^1-phenyl-4-(1H-pyrazol-5-yl)benzene-1,3-diamine]
15 | 0.69 µM | 0.14 µM | Fc1ccc(C(Nc2ccc(NCCn3cncn3)cc2)C(F)(F)F)cc1 (stereo not drawn) [SS20308-0232-01, N^1-(2-(1H-1,2,4-triazol-1-yl)ethyl)-N^4-(2,2,2-trifluoro-1-(4-fluorophenyl)ethyl)benzene-1,4-diamine]
16 | 0.22 µM | 0.14 µM | Cc1cccc(C)c1-c1ccc(Nc2ccccc2)cc1NCCn1cncn1 [SS20308-0133-01, N2-(2-(1H-1,2,4-triazol-1-yl)ethyl)-2′,6′-dimethyl-N4-phenyl-[1,1′-biphenyl]-2,4-diamine]
17 | 0.22 µM and 0.28 µM and 0.11 µM and 0.26 µM | 30 nM and 80 nM and 60 nM (2×) | Cc1cc(Nc2ccc(F)cc2Cl)ccc1NCC1(Cn2cncn2)COC1 [SS20308-0272-01, N1-((3-((1H-1,2,4-triazol-1-yl)methyl)oxetan-3-yl)methyl)-N4-(2-chloro-4-fluorophenyl)-2-methylbenzene-1,4-diamine]
18 | 0.09 µM | 0.05 µM | c1ncn(CC2(CNc3ccc(NCC4CCCCC4)cc3)COC2)n1 [SS20308-0242-01, N^1-((3-((1H-1,2,4-triazol-1-yl)methyl)oxetan-3-yl)methyl)-N^4-(cyclohexylmethyl)benzene-1,4-diamine]
19 | 0.15 µM and 0.44 µM | 0.03 µM | Cc1cc(Nc2ccc(Cl)c(F)c2)ccc1NCC1(CN2CCCC2)COC1 [SS20308-0324-01, N^4-(4-chloro-3-fluorophenyl)-2-methyl-N^1-((3-(pyrrolidin-1-ylmethyl)oxetan-3-yl)methyl)benzene-1,4-diamine]
20 | 0.07 µM | 0.06 µM | FC(F)(F)C(Nc1ccc(NCCCN2CCOCC2)c(C2CCOCC2)c1)c1ccccc1 (stereo not drawn) [SS20308-0315-01, N^1-(3-morpholinopropyl)-2-(tetrahydro-2H-pyran-4-yl)-N^4-(2,2,2-trifluoro-1-phenylethyl)benzene-1,4-diamine]
21 | 0.05 µM | 0.05 µM | FC(F)(F)c1cc(Nc2ccc(Cl)cc2)ccc1NCC1(Cn2cncn2)COC1 [SS20308-0322-01, N^1-((3-((1H-1,2,4-triazol-1-yl)methyl)oxetan-3-yl)methyl)-N^4-(4-chlorophenyl)-2-(trifluoromethyl)benzene-1,4-diamine]
22 | 0.11 µM and 0.14 µM and 0.1 µM and 0.19 µM and 0.29 µM |  | Cc1cc(Nc2ccc(F)cc2Cl)ccc1NCC1(CN2CCCC2)COC1 [SS20308-0310-01, N^4-(2-chloro-4-fluorophenyl)-2-methyl-N^1-((3-(pyrrolidin-1-ylmethyl)oxetan-3-yl)methyl)benzene-1,4-diamine]
23 | 0.25 µM |  | CN(CCn1cncn1)c1cc(Nc2ccccc2)ccc1-c1ccccc1 [SS20308-0131-01, N2-(2-(1H-1,2,4-triazol-1-yl)ethyl)-N2-methyl-N4-phenyl-[1,1′-biphenyl]-2,4-diamine]

Row | Structure (SMILES) | IC50 (5-LOX) | IC50 (12-LOX)
24 | Fc1c(Nc2ccccc2)ccc(-c2ccccc2)c1NCCn1cncn1 [SS20308-0148-01, N^2-(2-(1H-1,2,4-triazol-1-yl)ethyl)-3-fluoro-N^4-phenylbiphenyl-2,4-diamine] | 3.77 µM and 0.76 µM | 
